Measured values published in patent publication US20230058171A1, “NEW ORAL PHARMACEUTICAL COMPOSITION FOR CANCER THERAPY” (BOEHRINGER INGELHEIM INTERNATIONAL GMBH, priority 2021, published 2023).

Test system: patients with advanced or metastatic solid tumors
Assay: Trial 1403-0001 Phase Ia dose escalation, Arm B (D1 D8 q4w): adverse events
Format: in vivo
Conditions: for Subjects with any AE, % / Subjects with investigator defined drug-related AEs, % / Subjects with maximum CTC Grade 1, % / Subjects with maximum CTC Grade 2, % / Subjects with maximum CTC Grade 3, % / Subjects with maximum CTC Grade 4, % / Subjects with maximum CTC Grade 5, % / Subjects with serious AEs, % / AEs leading to Discontinuation: Dose limiting toxicity, % / AEs leading to Discontinuation: Other adverse event, % / Patients with Dose limiting toxicity, % / Serious AEs: Cogenital Anomaly or Birth Defect, % / Serious AEs: Is Life Threatening, % / Serious AEs: Other Medically Important Serious Event, % / Serious AEs: Persists of Signif. Disability/Incapacity, % / Serious AEs: Requires or Prolongs Hospitalization, % / Serious AEs: Results in Death, % / Subjects with AEs leading to Discontinuation of trial drug, % / Subjects with AEs leading to dose reduction of trial drug, %: Arm B D1 D8 q4w
Experimental: The Phase Ia dose escalation part aimed to define the Maximum Tolerated Dose (MTD) and the Recommended Dose for Expansion (RDE) for the MDM2-antagonist of formula I based on safety and tolerability, pharmacokinetics, pharmacodynamics, and preliminary efficacy. The RDE will be further explored in the Phase Ib expansion part of the trial.
Dose levels evaluated in Arm A were 10, 20, 30, 45, 50, 60, and 80 mg. Dose levels evaluated in Arm B (referring to the dose administered on Day 1 and Day 8) were 5, 10, 15, 20, 30, 45, and 60 mg.

Cc1c(C(=O)O)ccc2c3n(nc12)[C@@H]1[C@H](C3)N(CC2CC2)[C@@]2(C(=O)Nc3cc(Cl)ccc32)[C@H]1c1cccc(Cl)c1F [MDM2-antagonist of formula I, (2′S,3′S,3a'S,10a'S)-6-chloro-3′-(3-chloro-2-fluorophenyl)-1′-(cyclopropylmethyl)-6′-methyl-2-oxo-1,2,3′,3a′,10′,10a′-hexahydro-1′H-spiro[indole-3,2′-pyrrolo[2′,3′:4,5]pyrrolo[1,2-b]indazole]-7′-carboxylic acid]
Subjects with any AE, % (30 mg): 100% | Subjects with investigator defined drug-related AEs, % (30 mg): 100% | Subjects with maximum CTC Grade 1, % (30 mg): 50.0% | Subjects with maximum CTC Grade 2, % (30 mg): 25.0% | Subjects with maximum CTC Grade 3, % (30 mg): 0% | Subjects with maximum CTC Grade 4, % (30 mg): 25.0% | Subjects with maximum CTC Grade 5, % (30 mg): 0% | Subjects with serious AEs, % (30 mg): 25.0% | AEs leading to Discontinuation: Dose limiting toxicity, % (45 mg): 0% | AEs leading to Discontinuation: Other adverse event, % (45 mg): 16.7% | Patients with Dose limiting toxicity, % (45 mg): 16.7% | Serious AEs: Cogenital Anomaly or Birth Defect, % (45 mg): 0% | Serious AEs: Is Life Threatening, % (45 mg): 0% | Serious AEs: Other Medically Important Serious Event, % (45 mg): 16.7% | Serious AEs: Persists of Signif. Disability/Incapacity, % (45 mg): 16.7% | Serious AEs: Requires or Prolongs Hospitalization, % (45 mg): 33.3% | Serious AEs: Results in Death, % (45 mg): 0% | Subjects with AEs leading to Discontinuation of trial drug, % (45 mg): 16.7% | Subjects with AEs leading to dose reduction of trial drug, % (45 mg): 16.7% | Subjects with any AE, % (45 mg): 100% | Subjects with investigator defined drug-related AEs, % (45 mg): 100% | Subjects with maximum CTC Grade 1, % (45 mg): 0% | Subjects with maximum CTC Grade 2, % (45 mg): 33.3% | Subjects with maximum CTC Grade 3, % (45 mg): 50.0% | Subjects with maximum CTC Grade 4, % (45 mg): 16.7% | Subjects with maximum CTC Grade 5, % (45 mg): 0% | Subjects with serious AEs, % (45 mg): 50.0% | AEs leading to Discontinuation: Dose limiting toxicity, % (60 mg): 0% | AEs leading to Discontinuation: Other adverse event, % (60 mg): 0% | Patients with Dose limiting toxicity, % (60 mg): 66.7% | Serious AEs: Cogenital Anomaly or Birth Defect, % (60 mg): 0% | Serious AEs: Is Life Threatening, % (60 mg): 0% | Serious AEs: Other Medically Important Serious Event, % (60 mg): 0% | Serious AEs: Persists of Signif. Disability/Incapacity, % (60 mg): 0% | Serious AEs: Requires or Prolongs Hospitalization, % (60 mg): 66.7% | Serious AEs: Results in Death, % (60 mg): 0% | Subjects with AEs leading to Discontinuation of trial drug, % (60 mg): 0% | Subjects with AEs leading to dose reduction of trial drug, % (60 mg): 66.7% | Subjects with any AE, % (60 mg): 100% | Subjects with investigator defined drug-related AEs, % (60 mg): 100% | Subjects with maximum CTC Grade 1, % (60 mg): 0% | Subjects with maximum CTC Grade 2, % (60 mg): 0% | Subjects with maximum CTC Grade 3, % (60 mg): 33.3% | Subjects with maximum CTC Grade 4, % (60 mg): 66.7% | Subjects with maximum CTC Grade 5, % (60 mg): 0% | Subjects with serious AEs, % (60 mg): 66.7% | AEs leading to Discontinuation: Dose limiting toxicity, % (Total): 0% | AEs leading to Discontinuation: Other adverse event, % (Total): 4.0% | Patients with Dose limiting toxicity, % (Total): 12.0% | Serious AEs: Cogenital Anomaly or Birth Defect, % (Total): 0% | Serious AEs: Is Life Threatening, % (Total): 0% | Serious AEs: Other Medically Important Serious Event, % (Total): 12.0% | Serious AEs: Persists of Signif. Disability/Incapacity, % (Total): 4.0% | Serious AEs: Requires or Prolongs Hospitalization, % (Total): 28.0% | Serious AEs: Results in Death, % (Total): 0% | Subjects with AEs leading to Discontinuation of trial drug, % (Total): 4.0% | Subjects with AEs leading to dose reduction of trial drug, % (Total): 24% | Subjects with any AE, % (Total): 100% | Subjects with investigator defined drug-related AEs, % (Total): 92.0% | Subjects with maximum CTC Grade 1, % (Total): 20.0% | Subjects with maximum CTC Grade 2, % (Total): 36.0% | Subjects with maximum CTC Grade 3, % (Total): 28.0% | Subjects with maximum CTC Grade 4, % (Total): 16.0% | Subjects with maximum CTC Grade 5, % (Total): 0% | Subjects with serious AEs, % (Total): 36.0% | Subjects with AEs leading to dose reduction of trial drug, % (Total, listed as Comp. I): 24.0% | AE alopecia, patients (Arm B, all 25 patients): 24.0% | AE decreased appetite, patients (Arm B, all 25 patients): 40.0% | AE diarrhea, patients (Arm B, all 25 patients): 44.0% | AE fatigue, patients (Arm B, all 25 patients): 52.0% | AE nausea, patients (Arm B, all 25 patients): 92.0% | AE platelet count decreased, patients (Arm B, all 25 patients): 28.0% | AE vomiting, patients (Arm B, all 25 patients): 64.0% | Grade 3 AE anemia, patients (Arm B, all 25 patients): 8.0% | Grade 3 AE platelet count decreased, patients (Arm B, all 25 patients): 8.0% | Grade 4 AE neutrophil count decreased, patients (Arm B, all 25 patients): 8.0% | Grade 4 AE platelet count decreased, patients (Arm B, all 25 patients): 8.0% | SAE platelet count decreased, patients (Arm B, all 25 patients): 8.0% | dose reduction due to diarrhea, patients (Arm B, all 25 patients): 4.0% | dose reduction due to neutropenia and/or thrombocytopenia, patients (Arm B, all 25 patients): 20.0% | drug-related AE alopecia, patients (Arm B, all 25 patients): 24.0% | drug-related AE decreased appetite, patients (Arm B, all 25 patients): 28.0% | drug-related AE diarrhea, patients (Arm B, all 25 patients): 32.0% | drug-related AE fatigue, patients (Arm B, all 25 patients): 40.0% | drug-related AE nausea, patients (Arm B, all 25 patients): 76.0% | drug-related AE platelet count decreased, patients (Arm B, all 25 patients): 28.0% | drug-related AE vomiting, patients (Arm B, all 25 patients): 60.0% | fatal AEs (Arm B, all 25 patients): No fatal AEs were reported
